Experiment [1] deals with GST-tagged KRAS-G12D (2-169) (Homo sapiens, UniProt P01116, G12D). Nature of the experiment: Nucleotide exchange assay (NEA), SOS-mediated, HTRF, KRAS G12D. It counts as biochemical. As to conditions: Table 4; IC50 extracted at 30 min; 20 nM SOScat; read-out: NEA G12D IC50. Summed up:
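SOS1cat-driven loading of fluorescent GTP-DY-647P1 (150 nM) onto GST-KRAS-G12D (2-169, 0.25 nM) read by time-resolved FRET; SOScat 20 nM, compound preincubated with KRAS 1 h at RT. Signal blanked to no-SOS reactions, normalized to DMSO; IC50 fitted from the 30-min read.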
On the technique in general: In TR-FRET formats the signal depends on donor and acceptor labels being close together.

The target in experiment [2] is GST-tagged KRAS-G12V (2-169) (Homo sapiens, UniProt P01116, G12V). Nature of the experiment: Nucleotide exchange assay (NEA), SOS-mediated, HTRF, KRAS G12V. In kind it is biochemical. The settings on record: Table 4; IC50 extracted at 90 min; 80 nM SOS. The procedure, abridged:
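Exchange onto fluorescent GTP-DY-647P1 (150 nM final) catalysed by 80 nM SOS1cat was followed by Tb-anti-GST HTRF at RT for up to 90 min, after 1 h compound pre-incubation with 0.25 nM GST-tagged KRAS-G12V (2-169), pH 7.3. DMSO = 0%, no-SOS blank = 100%; 4-parameter IC50 taken at 90 min.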

The subject of experiment [3] is phospho-ERK in GP2D (KRAS-G12D) cells. Nature of the experiment: pERK In Cell Western (ICW) assay (Method B), GP2D. It counts as cell-based. The procedure, abridged:
(§1)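 Per well, infrared pERK immunofluorescence was divided by DRAQ5 nuclear signal following 3 h treatment with a 9-point, ½-log compound series; seeding was 5,000 (AGS) or 10,000 (GP2D, SW620) cells per well. Percent-of-blank data were fitted to a four-parameter model for IC50.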

The test system of experiment [4] is phospho-ERK in SW620 (KRAS-G12V) cells. Nature of the experiment: pERK In Cell Western (ICW) assay (Method B), SW620. It counts as cell-based. Summed up: as §1
The mark [5] stands for this setting: Homo sapiens, SW-620, 3 h, Table 4.

The values that follow come from patent publication US12421254B2, “KRAS modulators and uses thereof” (Quanta Therapeutics, Inc., priority 2023, dated 2025).

The term IC50 denotes the concentration that inhibits the measured activity by half.

Sequence of GST-tagged KRAS-G12V (2-169) (P01116 2-169 isoform P01116-2 G12V): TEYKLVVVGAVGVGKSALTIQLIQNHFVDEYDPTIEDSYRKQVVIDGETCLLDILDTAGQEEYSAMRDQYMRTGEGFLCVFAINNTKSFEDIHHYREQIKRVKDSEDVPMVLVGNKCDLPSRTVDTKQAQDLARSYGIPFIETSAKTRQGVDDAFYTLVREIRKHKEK
Sequence of GST-tagged KRAS-G12D (2-169) (P01116 2-169 isoform P01116-2 G12D): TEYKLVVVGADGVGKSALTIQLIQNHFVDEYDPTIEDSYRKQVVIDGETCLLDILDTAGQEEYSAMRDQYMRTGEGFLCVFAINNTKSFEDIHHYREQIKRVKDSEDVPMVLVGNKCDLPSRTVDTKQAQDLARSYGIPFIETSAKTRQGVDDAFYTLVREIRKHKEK

With `CC(c1cccnc1N)N(C)c1nc(OCC2(CN3CCOCC3)CC2)nc(N2CC3(CCc4sc(N)c(C#N)c43)C2)n1` (centres unmarked) [Compound 97, 2-amino-1′-[4-[1-(2-amino-3-pyridyl)ethyl-methyl-amino]-6-[[1-(morpholinomethyl)cyclopropyl]methoxy]-1,3,5-triazin-2-yl]spiro[5,6-dihydrocyclopenta[b]thiophene-4,3′-azetidine]-3-carbonitrile], the half-maximal inhibitory concentration (IC50) in experiment [1] was 10 to 100 nM; in experiment [2], under 10 nM; in experiment [3] (GP2d, 3 h, Table 4) it was 1000 to 20000 nM; in experiment [4] (setting [5]) it was 100 to 1000 nM.
The matching figures for `CN(C)CC1(COc2nc(N3CC4(C3)SCc3sc(N)c(C#N)c34)nc(N3CCC[C@@](C)(O)C3)n2)CC1(F)F` (stereo partly drawn) [Compound 104, 2-amino-1′-[4-[[1-[(dimethylamino)methyl]-2,2-difluoro-cyclopropyl]methoxy]-6-[(3R)-3-hydroxy-3-methyl-1-piperidyl]-1,3,5-triazin-2-yl]spiro[6H-thieno[2,3-c]thiophene-4,3′-azetidine]-3-carbonitrile]: under 10 nM, under 10 nM, under 10 nM and 10 to 100 nM.
The matching figures for `CC(c1nccnc1N)N(C)c1nc(OC[C@@]23CCCN2C[C@H](F)C3)nc(N2CC3(CCc4sc(N)c(C#N)c43)C2)n1` (single isomer, unassigned) [Compound 116A, 2-amino-1′-[4-[[(1*)-1-(3-aminopyrazin-2-yl)ethyl]-methyl-amino]-6-[[(2R,8S)-2-fluoro-1,2,3,5,6,7-hexahydropyrrolizin-8-yl]methoxy]-1,3,5-triazin-2-yl]spiro[5,6-dihydrocyclopenta[b]thiophene-4,3′-azetidine]-3-carbonitrile]: under 10 nM, under 10 nM, 10 to 100 nM and 10 to 100 nM.
In the case of `C[C@H](c1cc(N)ncc1F)N(C)c1nc(OC[C@@]23CCCN2C[C@H](F)C3)nc(N2CC3(CCc4sc(N)c(C#N)c43)C2)n1` [Compound 142, 2-amino-1′-[4-[[(1R)-1-(2-amino-5-fluoro-4-pyridyl)ethyl]-methyl-amino]-6-[[(2R,8S)-2-fluoro-1,2,3,5,6,7-hexahydropyrrolizin-8-yl]methoxy]-1,3,5-triazin-2-yl]spiro[5,6-dihydrocyclopenta[b]thiophene-4,3′-azetidine]-3-carbonitrile], the 50% inhibitory concentration (IC50) was under 10 nM in experiment [1]; under 10 nM in experiment [2]; 10 to 100 nM in experiment [3] (Table 4, 3 hours); 10 to 100 nM in experiment [4] (Table 4, 3 hours).
With `N#Cc1c(N)sc2c1C1(CC2)CN(c2nc(NCc3ccn[nH]3)nc(OC[C@@]34CCCN3C[C@H](F)C4)n2)C1` [Compound 84, 2-amino-1′-[4-[[(2R,8S)-2-fluoro-1,2,3,5,6,7-hexahydropyrrolizin-8-yl]methoxy]-6-(1H-pyrazol-5-ylmethylamino)-1,3,5-triazin-2-yl]spiro[5,6-dihydrocyclopenta[b]thiophene-4,3′-azetidine]-3-carbonitrile], the IC50 in experiment [1] was 100 to 1000 nM; in experiment [2] it was 100 to 1000 nM; in experiment [3] (GP2d, 3 h, Table 4), 1000 to 20000 nM; in experiment [4] (setting [5]), at least 20000 nM.
`N#Cc1c(N)sc2c1C1(CC2)CN(c2nc(OC[C@@]34CCCN3C[C@H](F)C4)nc(N3CCCC(O)(CO)C3)n2)C1` (stereo partly drawn) [Compound 85, 2-amino-1′-[4-[3-hydroxy-3-(hydroxymethyl)-1-piperidyl]-6-[[(2R,8S)-2-fluoro-1,2,3,5,6,7-hexahydropyrrolizin-8-yl]methoxy]-1,3,5-triazin-2-yl]spiro[5,6-dihydrocyclopenta[b]thiophene-4,3′-azetidine]-3-carbonitrile]: the concentration for half-maximal inhibition (IC50) in experiment [1] was 100 to 1000 nM; in experiment [2], 10 to 100 nM; in experiment [3] (GP2d, 3 h, Table 4) it was 1000 to 20000 nM; in experiment [4] (setting [5]) it was 1000 to 20000 nM.
In the case of `CC(=O)C(O)(O)C(=O)N1[C@@H]2CC[C@H]1CN(c1nc(OC[C@@]34CCCN3C[C@H](F)C4)nc(N3CC4(C3)SCc3sc(N)c(C#N)c34)n1)C2` [Compound 159, 2-amino-1′-[4-[(1R,5S)-8-(2,2-dihydroxy-3-oxo-butanoyl)-3,8-diazabicyclo[3.2.1]octan-3-yl]-6-[[(2R,8S)-2-fluoro-1,2,3,5,6,7-hexahydropyrrolizin-8-yl]methoxy]-1,3,5-triazin-2-yl]spiro[6H-thieno[3,4-b]thiophene-4,3′-azetidine]-3-carbonitrile], the 50% inhibitory concentration (IC50) in experiment [1] was 10 to 100 nM; in experiment [2] it was 100 to 1000 nM; in experiment [3] (GP2d, 3 h, Table 4), 100 to 1000 nM; in experiment [4] (setting [5]), 1000 to 20000 nM.
With `C[C@H](c1cccnc1N)N(C)c1nc(OC[C@@]23CCCN2C[C@H](F)C3)nc(N2CC(C)(c3csc(N)c3C#N)C2)n1` [Compound 172, 2-amino-4-[1-[4-[[(1R)-1-(2-amino-3-pyridyl)ethyl]-methyl-amino]-6-[[(2R,8S)-2-fluoro-1,2,3,5,6,7-hexahydropyrrolizin-8-yl]methoxy]-1,3,5-triazin-2-yl]-3-methyl-azetidin-3-yl]thiophene-3-carbonitrile], the half-inhibitory concentration (IC50) in experiment [1] is under 10 nM; in experiment [2] it was under 10 nM; in experiment [3] (GP2d, 3 h, Table 4), 100 to 1000 nM; in experiment [4] (setting [5]), 10 to 100 nM.
Regarding `C=C1CN2CCCC2(COc2nc(N3CC4(CCc5sc(N)c(C#N)c54)C3)nc(N3CCC[C@@](C)(O)C3)n2)C1` (stereo partly drawn) [Compound 55, 2-amino-1′-[4-[(3R)-3-hydroxy-3-methyl-1-piperidyl]-6-[(6-methylene-2,3,5,7-tetrahydro-1H-pyrrolizin-8-yl)methoxy]-1,3,5-triazin-2-yl]spiro[5,6-dihydrocyclopenta[b]thiophene-4,3′-azetidine]-3-carbonitrile], the IC50 in experiment [1] is under 10 nM; in experiment [2], under 10 nM; in experiment [3] (GP2d, 3 h, Table 4), 10 to 100 nM; in experiment [4] (setting [5]), 100 to 1000 nM.
With `CC(c1cccnc1N)N(C)c1nc(OC[C@@]23CCCN2C[C@H](F)C3)nc(N2CC3(C2)SCc2sc(N)c(C#N)c23)n1` (single isomer, unassigned) [Compound 120B, 2-amino-1′-[4-[[(1*)-1-(2-amino-3-pyridyl)ethyl]-methyl-amino]-6-[[(2R,8S)-2-fluoro-1,2,3,5,6,7-hexahydropyrrolizin-8-yl]methoxy]-1,3,5-triazin-2-yl]spiro[6H-thieno[3,4-b]thiophene-4,3′-azetidine]-3-carbonitrile], the IC50 was under 10 nM in experiment [1]; under 10 nM in experiment [2]; 10 to 100 nM in experiment [3] (Table 4, 3 hours); 10 to 100 nM in experiment [4] (Table 4, 3 hours).
Take `N#Cc1c(N)sc2c1C1(CC2)CN(c2nc(OC[C@@]34CCCN3C[C@H](F)C4)nc(N(CCO)Cc3cc(F)cnc3N)n2)C1` [Compound 133, 2-amino-1′-[4-[(2-amino-5-fluoro-3-pyridyl)methyl-(2-hydroxyethyl)amino]-6-[[(2R,8S)-2-fluoro-1,2,3,5,6,7-hexahydropyrrolizin-8-yl]methoxy]-1,3,5-triazin-2-yl]spiro[5,6-dihydrocyclopenta[b]thiophene-4,3′-azetidine]-3-carbonitrile]: the IC50 in experiment [1] is under 10 nM; in experiment [2], under 10 nM; in experiment [3] (GP2d, 3 h, Table 4) it was 100 to 1000 nM; in experiment [4] (setting [5]) it was 10 to 100 nM.
